Measured values published in patent US10336762B2 (priority 2017, dated 2019).

Columns and labels:
IRAK4 enzyme = IRAK4 enzyme (Homo sapiens (Human), UniProt Q9NWZ3); assay: biochemical; type: biochemical; settings: IRAK4 enzyme, TR-FRET, 500 μM ATP
TNFα = assay: cells; type: cell-based, human; settings: Homo sapiens, Monocyte, LPS-stimulated human monocytes, TNFα content; read-out: EC50 TNF

Sequence of IRAK4 enzyme (Q9NWZ3 whole entry): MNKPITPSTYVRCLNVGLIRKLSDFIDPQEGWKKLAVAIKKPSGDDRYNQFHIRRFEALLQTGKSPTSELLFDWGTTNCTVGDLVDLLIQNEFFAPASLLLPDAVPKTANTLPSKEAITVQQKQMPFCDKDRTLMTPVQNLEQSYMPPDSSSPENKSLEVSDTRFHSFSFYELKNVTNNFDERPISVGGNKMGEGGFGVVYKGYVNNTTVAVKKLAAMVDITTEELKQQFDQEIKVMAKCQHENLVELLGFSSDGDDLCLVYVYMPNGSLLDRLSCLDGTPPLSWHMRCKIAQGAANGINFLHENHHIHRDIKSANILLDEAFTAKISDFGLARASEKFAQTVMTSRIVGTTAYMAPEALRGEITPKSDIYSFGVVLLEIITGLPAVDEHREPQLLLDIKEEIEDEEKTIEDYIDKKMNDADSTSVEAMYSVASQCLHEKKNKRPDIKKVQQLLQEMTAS

Row | Compound | IC50 (IRAK4 enzyme) [nM] | EC50 (TNFα) [nM]
1 | CC1(C)OCCC1Nc1cc(-c2ccc3cc(C#N)cnn23)ncc1C(=O)NC[C@@H](F)C(C)(C)O (stereo partly drawn) [Example 130, 6-(3-cyanopyrrolo[1,2-b]pyridazin-7-yl)-4-((2,2-dimethyltetrahydrofuran-3-yl)amino)-N-((R)-2-fluoro-3-hydroxy-3-methylbutyl)nicotinamide] | 3 | 221
2 | CC(=O)NC12CCC(NC(=O)c3cnc(-c4ccc5cc(C#N)cnn45)cc3NC(C)C)(CC1)CC2 [Example 131, N-(4-acetamido-bicyclo[2.2.2]octan-1-yl)-6-(3-cyanopyrrolo[1,2-b]pyridazin-7-yl)-4-(isopropylamino) nicotinamide] | 1 | 154
3 | CC(=O)NC12CC(NC(=O)c3cnc(-c4ccc5cc(C#N)cnn45)cc3NC(C)C)(C1)C2 [Example 132, N-(3-acetamidobicyclo [1.1.1]pentan-1-yl)-6-(3-cyanopyrrolo[1,2-b]pyridazin-7-yl)-4-(isopropylamino) nicotinamide] | 5 | 222
4 | COCCCNc1cc(-c2ccc3cc(C#N)cnn23)ncc1C(=O)NC[C@@H](F)C(C)(C)O [Example 133, (R)-6-(3-cyanopyrrolo[1,2-b]pyridazin-7-yl)-N-(2-fluoro-3-hydroxy-3-methylbutyl)-4-((3-methoxypropyl)amino) nicotinamide] | 1 | 91
5 | CC(C)Nc1cc(-c2ccc3cc(C#N)cnn23)ncc1C(=O)NC1CCC(NC(=O)C2(C)COC2)CC1 (stereo not drawn) [Example 134, 6-(3-cyanopyrrolo[1,2-b]pyridazin-7-yl)-4-(isopropylamino)-N-((1r,4r)-4-(3-methyloxetane-3-carboxamido)cyclohexyl)nicotinamide] | 1 | 101
6 | CC(C)Nc1cc(-c2ccc3cc(C#N)cnn23)ncc1C(=O)NC1CCC(NC(=O)C(C)(C)O)CC1 (stereo not drawn) [Example 135, 6-(3-cyanopyrrolo[1,2-b]pyridazin-7-yl)-N-((1r,4r)-4-(2-hydroxy-2-methylpropanamido)cyclo-hexyl)-4-(isopropylamino) nicotinamide] | 2 | 130
7 | CC1(F)CC(Nc2cc(-c3ccc4cc(C#N)cnn34)ncc2C(=O)NC[C@@H](F)C(C)(C)O)C1 (stereo partly drawn) [Example 136, (R)-6-(3-cyanopyrrolo[1,2-b]pyridazin-7-yl)-N-(2-fluoro-3-hydroxy-3-methylbutyl)-4-((3-fluoro-3-methylcyclobutyl)amino) nicotinamide] | 2 | 163
8 | CC(C)(O)[C@H](F)CNC(=O)c1cnc(-c2ccc3cc(C#N)cnn23)cc1NCC1CC1(F)F (stereo partly drawn) [Example 137, 6-(3-cyanopyrrolo[1,2-b]pyridazin-7-yl)-4-(((2,2-difluorocyclopropyl)methyl)amino)-N-((R)-2-fluoro-3-hydroxy-3-methylbutyl)nicotinamide] | 2 | 140
9 | CC(C)(O)Cn1cc(Nc2cc(-c3ccc4cc(C#N)cnn34)ncc2C(=O)NC[C@@H](F)C(C)(C)O)cn1 [Example 138, (R)-6-(3-cyanopyrrolo[1,2-b]pyridazin-7-yl)-N-(2-fluoro-3-hydroxy-3-methylbutyl)-4-((1-(2-hydroxy-2-methylpropyl)-1H-pyrazol-4-yl)amino)nicotinamide] | 1 | 117
10 | CC(C)Nc1cc(-c2ccc3cc(C#N)cnn23)ncc1C(=O)NC1CCS(=O)(=O)CC1 [Example 139, 6-(3-cyanopyrrolo[1,2-b]pyridazin-7-yl)-N-(1,1-dioxidotetrahydro-2H-thiopyran-4-yl)-4-(isopropylamino) nicotinamide] | 19 | 254
11 | CC(C)(O)[C@H](F)CNC(=O)c1cnc(-c2ccc3cc(C#N)cnn23)cc1Nc1ccc(C#N)cc1 [Example 140, (R)-4-((4-cyanophenyl)amino)-6-(3-cyanopyrrolo[1,2-b]pyridazin-7-yl)-N-(2-fluoro-3-hydroxy-3-methylbutyl)nicotinamide] | < 1 | 58
12 | CC(C)(O)[C@H](F)CNC(=O)c1cnc(-c2ccc3cc(C#N)cnn23)cc1Nc1cccc(C#N)c1 [Example 141, (R)-4-((3-cyanophenyl)amino)-6-(3-cyano-pyrrolo[1,2-b]pyridazin-7-yl)-N-(2-fluoro-3-hydroxy-3-methylbutyl)nicotinamide] | < 1 | 70
13 | Cc1nsc(Nc2cc(-c3ccc4cc(C#N)cnn34)ncc2C(=O)NC[C@@H](F)C(C)(C)O)n1 [Example 142, (R)-6-(3-cyanopyrrolo[1,2-b]pyridazin-7-yl)-N-(2-fluoro-3-hydroxy-3-methylbutyl)-4-((3-methyl-1,2,4-thiadiazol-5-yl)amino) nicotinamide] | 4 | 169
14 | CC(C)(O)[C@H](F)CNC(=O)c1cnc(-c2ccc3cc(C#N)cnn23)cc1Nc1ccccc1C#N [Example 143, (R)-4-((2-cyanophenyl)amino)-6-(3-cyanopyrrolo[1,2-b]pyridazin-7-yl)-N-(2-fluoro-3-hydroxy-3-methylbutyl)nicotinamide] | 18 | 720
15 | CC(C)(O)[C@H](F)CNC(=O)c1cnc(-c2ccc3cc(C#N)cnn23)cc1Nc1nnc(N2CCOCC2)o1 [Example 144, (R)-6-(3-cyanopyrrolo[1,2-b]pyridazin-7-yl)-N-(2-fluoro-3-hydroxy-3-methylbutyl)-4-((5-morpholino-1,3,4-oxadiazol-2-yl)amino) nicotinamide] | 656 | > 10000
16 | CC(C)(O)[C@H](F)CNC(=O)c1cnc(-c2ccc3cc(C#N)cnn23)cc1Nc1cncnc1 [Example 145, (R)-6-(3-cyanopyrrolo[1,2-b]pyridazin-7-yl)-N-(2-fluoro-3-hydroxy-3-methylbutyl)-4-(pyrimidin-5-ylamino)nicotinamide] | < 1 | 70
17 | Cc1nnc(Nc2cc(-c3ccc4cc(C#N)cnn34)ncc2C(=O)NC[C@@H](F)C(C)(C)O)s1 [Example 146, (R)-6-(3-cyanopyrrolo[1,2-b]pyridazin-7-yl)-N-(2-fluoro-3-hydroxy-3-methylbutyl)-4-((5-methyl-1,3,4-thiadiazol-2-yl)amino)nicotinamide] | 1 | 117
18 | CC(C)(O)[C@H](F)CNC(=O)c1cnc(-c2ccc3cc(C#N)cnn23)cc1N[C@H]1[C@@H]2COC[C@@H]21 [Example 147, 4-(((1R,5S,6r)-3-oxabicyclo[3.1.0]hexan-6-yl)amino)-6-(3-cyano-pyrrolo[1,2-b]pyridazin-7-yl)-N-((R)-2-fluoro-3-hydroxy-3-methylbutyl)nicotinamide] | < 1 | 47
19 | CC(C)(O)[C@H](F)CNC(=O)c1cnc(-c2ccc3cc(C#N)cnn23)cc1N[C@@H]1[C@@H]2COC[C@@H]21 [Example 148, 4-(((1R,5S,6s)-3-oxabicyclo[3.1.0]hexan-6-yl)amino)-6-(3-cyano-pyrrolo[1,2-b]pyridazin-7-yl)-N-((R)-2-fluoro-3-hydroxy-3-methylbutyl)nicotinamide] | 2 | 206
20 | CC(C)Nc1cc(-c2ccc3cc(C#N)cnn23)ncc1C(=O)NC1CC2(CC(O)C2)C1 (stereo not drawn) [Example 149, 6-(3-cyanopyrrolo[1,2-b]pyridazin-7-yl)-N-(6-hydroxyspiro[3.3]heptan-2-yl)-4-(isopropylamino) nicotinamide] | 1 | 148
21 | CC(C)(O)[C@H](F)CNC(=O)c1cnc(-c2ccc3cc(C#N)cnn23)cc1N[C@@H]1CCOC[C@H]1F [Example 150, 6-(3-cyanopyrrolo[1,2-b]pyridazin-7-yl)-N-((R)-2-fluoro-3-hydroxy-3-methylbutyl)-4-(((3S,4R)-3-fluorotetrahydro-2H-pyran-4-yl)amino)nicotinamide] | < 1 | 51
22 | CC(C)(O)[C@H](F)CNC(=O)c1cnc(-c2ccc3cc(C#N)cnn23)cc1N[C@H]1CCOC[C@@H]1F [Example 151, 6-(3-cyanopyrrolo[1,2-b]pyridazin-7-yl)-N-((R)-2-fluoro-3-hydroxy-3-methylbutyl)-4-(((3R,4S)-3-fluorotetrahydro-2H-pyran-4-yl)amino) nicotinamide] | < 1 | 96
23 | CC(C)Nc1cc(-c2ccc3cc(C#N)cnn23)ncc1C(=O)NC1CC2(CC(=O)C2)C1 [Example 152, 6-(3-cyanopyrrolo[1,2-b]pyridazin-7-yl)-4-(isopropylamino)-N-(6-oxospiro[3.3]heptan-2-yl)nicotinamide] | 2 | 191
24 | CC(C)Nc1cc(-c2ccc3cc(C#N)cnn23)ncc1C(=O)NC1CC2(C1)CC(C)(O)C2 (stereo not drawn) [Example 153, 6-(3-cyanopyrrolo[1,2-b]pyridazin-7-yl)-N-(6-hydroxy-6-methylspiro[3.3]heptan-2-yl)-4-(isopropylamino)nicotinamide] | < 1 | 91
25 | CC1(O)CCC(Nc2cc(-c3ccc4cc(C#N)cnn34)ncc2C(=O)NC[C@@H](F)C(C)(C)O)CC1 (stereo partly drawn) [Example 154, 6-(3-cyanopyrrolo[1,2-b]pyridazin-7-yl)-N-((R)-2-fluoro-3-hydroxy-3-methylbutyl)-4-(((1s,4S)-4-hydroxy-4-methyl-cyclohexyl)amino)nicotinamide] | < 1 | 34
26 | CN1CCC(Nc2cc(-c3ccc4cc(C#N)cnn34)ncc2C(=O)NC[C@@H](F)C(C)(C)O)CC1=O (stereo partly drawn) [Example 155, 6-(3-cyanopyrrolo[1,2-b]pyridazin-7-yl)-N-((R)-2-fluoro-3-hydroxy-3-methylbutyl)-4-((1-methyl-2-oxopiperidin-4-yl)amino) nicotinamide] | 1 | 150
27 | CC(C)(O)[C@H](F)CNC(=O)c1cnc(-c2ccc3cc(C#N)cnn23)cc1NC1CCN(C(=O)c2ccoc2)CC1 [Example 156, (R)-6-(3-cyanopyrrolo[1,2-b]pyridazin-7-yl)-N-(2-fluoro-3-hydroxy-3-methylbutyl)-4-((1-(furan-3-carbonyl)piperidin-4-yl)amino)nicotinamide] | 4 | 179
